Assay results published in patent US20210070735A1, “RIP1 INHIBITORY COMPOUNDS AND METHODS FOR MAKING AND USING THE SAME” (Rigel Pharmaceuticals, Inc., priority 2019, published 2021).

Assays:
human RIP1 = biological target: T1, human RIP1 (Homo sapiens, UniProt Q13546); assay: U937 cell necroptosis assay (TNFa + zVAD, CellTiter-Glo); assay type: cell-based; settings: U937 Zvad TNF CTG Recovery, U937 cells, TNFa 2 ng/mL + zVAD-fmk, 18 hours
T1 construct: U937 and L929 cells were obtained from the American Type Culture Collection; host or cells: U937
T1 sequence (Q13546 1-671): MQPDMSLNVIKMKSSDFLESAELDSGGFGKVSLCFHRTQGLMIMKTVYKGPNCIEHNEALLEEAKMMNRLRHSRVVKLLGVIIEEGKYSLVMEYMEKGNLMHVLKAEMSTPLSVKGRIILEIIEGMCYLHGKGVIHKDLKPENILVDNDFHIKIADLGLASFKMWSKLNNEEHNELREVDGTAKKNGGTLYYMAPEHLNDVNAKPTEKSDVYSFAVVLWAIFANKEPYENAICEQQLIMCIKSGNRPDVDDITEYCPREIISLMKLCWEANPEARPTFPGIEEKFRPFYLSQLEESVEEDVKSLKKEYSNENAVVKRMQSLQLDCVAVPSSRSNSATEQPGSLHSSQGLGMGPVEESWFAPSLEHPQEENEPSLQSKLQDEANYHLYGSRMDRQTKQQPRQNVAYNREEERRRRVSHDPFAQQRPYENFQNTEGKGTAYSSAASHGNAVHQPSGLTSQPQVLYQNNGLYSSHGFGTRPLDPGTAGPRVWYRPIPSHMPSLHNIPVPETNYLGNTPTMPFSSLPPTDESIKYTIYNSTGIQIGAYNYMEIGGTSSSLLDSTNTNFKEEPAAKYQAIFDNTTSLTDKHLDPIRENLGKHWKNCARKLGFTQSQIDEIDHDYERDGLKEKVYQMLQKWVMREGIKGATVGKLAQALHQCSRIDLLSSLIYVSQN
Method: (§1) In this example, U937 and L929 cells were exposed to compounds of the present disclosure and a cell necroptosis assay was conducted to evaluate the compounds' activity against human RIP1 and murine RIP1.
(§2) U937 and L929 cells were obtained from the American Type Culture Collection (Manassa, Va., USA). Both cells were maintained in logarithmic growth phase in complete RPMI 1640 media (Sigma, ST Louis, Mo., USA) supplemented with 10% fetal bovine serum (Sigma, ST Louis, Mo., USA) at 37° C. with 5% CO2. For necroptosis assay, L929 cells were plated for 18 h in 100 µL/well medium at 10K cells/well in Costar 96-well black clear-bottom plates (Fisher Scientific, Hampton, N.H., USA); U937 cells were plated on the day of the assay in 50 µL/well medium containing 60 uM zVAD-fmk (Lonza, Basel, Switzerland) at 50K cells/well. Medium from L929 cells were removed from the 96-well plates and replaced with 50 µL/well new medium containing 40 uM zVAD-fmk. Each compound of the present disclosure evaluated in this example was serially diluted in DMSO from 2.5 mM in 4-fold dilutions, and then diluted 1:125 in complete medium. 50 µL/well 2× of the compound was then added to the cells in the plates. The cells were pre-incubated with the compound for 1 hour at 37° C. with 5% CO2 and before addition of 10 µL/well 11×TNFa (Peprotech, Rocky Hill, N.J., USA) to give a final concentration of 2 ng/mL for TNFa. The relative amount of necroptosis cells was determined by luminescent using a Wallac Victor2 Luminometer (PerkinElmer, Waltham, Mass., USA) and a CellTiter-Glo® Luminescent Cell Viability Reagent Assay (Promega, Madison, Wis., USA) added per manufacturer instructions after 18 hours of TNFa stimulation at 37° C. with 5% CO2.Results from this example are summarized in Table 2. This example establishes that embodiments of the compounds described herein have unexpectedly potent activity against human RIP1 and murine RIP1, which allows their assessment in in vivo mouse models of disease.

murine RIP1 = biological target: T2, murine RIP1 (Mus musculus, UniProt Q60855); assay: L929 cell necroptosis assay (TNFa + zVAD, CellTiter-Glo); assay type: cell-based
T2 construct: U937 and L929 cells were obtained from the American Type Culture Collection; host or cells: L929
T2 sequence (Q60855 1-656): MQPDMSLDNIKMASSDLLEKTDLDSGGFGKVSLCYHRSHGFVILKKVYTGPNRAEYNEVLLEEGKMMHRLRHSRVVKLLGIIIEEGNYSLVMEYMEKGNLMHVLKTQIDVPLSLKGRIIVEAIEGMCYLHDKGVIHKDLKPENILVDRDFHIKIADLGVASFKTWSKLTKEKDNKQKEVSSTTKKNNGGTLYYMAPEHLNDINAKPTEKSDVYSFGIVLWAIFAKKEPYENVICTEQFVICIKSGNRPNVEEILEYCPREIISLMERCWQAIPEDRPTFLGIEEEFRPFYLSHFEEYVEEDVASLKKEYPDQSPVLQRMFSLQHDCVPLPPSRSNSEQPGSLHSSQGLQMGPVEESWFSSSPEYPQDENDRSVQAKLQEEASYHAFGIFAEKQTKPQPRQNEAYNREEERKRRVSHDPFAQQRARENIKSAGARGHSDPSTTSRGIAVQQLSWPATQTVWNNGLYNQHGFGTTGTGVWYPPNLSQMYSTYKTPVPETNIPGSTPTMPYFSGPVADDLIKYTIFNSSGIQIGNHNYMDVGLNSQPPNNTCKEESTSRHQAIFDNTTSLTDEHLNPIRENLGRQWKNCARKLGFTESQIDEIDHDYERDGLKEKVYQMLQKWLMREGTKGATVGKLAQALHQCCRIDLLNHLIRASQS
Method: as §1, §2

RIPK1 = biological target: T3, RIPK1 (Homo sapiens, UniProt Q13546); assay: RIPK1 ADP-Glo biochemical kinase assay; settings: 30 min at 30° C.
T3 sequence (Q13546 1-671): T1 sequence (Q13546 1-671)
Method: The final reaction volume was 5.0 μl.
Adding 5 μl of ADP-Glo™ terminated the reaction.

| SMILES | IC50 (RIPK1) | IC50 (human RIP1) | IC50 (murine RIP1) |
| --- | --- | --- | --- |
| [2H]C([2H])([2H])N1C(=O)C(NC(=O)c2n[nH]c(Cc3ccccc3)n2)CCc2ccc(C#CC(C)(C)O)cc21 (racemic) [Compound I-14, (±)-5-Benzyl-N-(8-(3-hydroxy-3-methylbut-1-yn-1-yl)-1-(methyl-d)-2-oxo-2,3,4,5-tetrahydro-1H-benzo[b]azepin-3-yl)-1H-1,2,4-triazole-3-carboxamide] | 129 nM | 7.3 nM | 43.3 nM |
| CN1C(=O)C(NC(=O)c2cc(Oc3ccccc3)ccn2)CCc2ccc(CN3CCN(c4ccncc4)CC3)cc21 (racemic) [Compound I-25, (±)-N-(1-Methyl-2-oxo-8-((4-(pyridin-4-yl)piperazin-1-yl)methyl)-2,3,4,5-tetrahydro-1H-benzo[b]azepin-3-yl)-4-phenoxypicolinamide] | 68.9 nM | 278 nM | 37100 nM |
| O=C(NC1CCc2ccc(N3CC4(CCOCC4)C3)cc2NC1=O)c1n[nH]c(Cc2ccccc2)n1 (racemic) [Compound I-9, (±)-5-Benzyl-N-(2-oxo-8-(7-oxa-2-azaspiro[3.5]nonan-2-yl)-2,3,4,5-tetrahydro-1H-benzo[b]azepin-3-yl)-1H-1,2,4-triazole-3-carboxamide] | 414 nM | 13.1 nM | 30800 nM |

Now those with a lower IC50 (RIPK1), led by results:

| IC50 (RIPK1) | SMILES | IC50 (human RIP1) | IC50 (murine RIP1) |
| --- | --- | --- | --- |
| 41.3 nM | [2H]C([2H])([2H])N1C(=O)C(NC(=O)c2cc(Oc3ccccc3)ccn2)CCc2ccc(N3CC4(CCOCC4)C3)cc21 (racemic) [Compound I-29, (±)-N-(1-(Methyl-d3)-2-oxo-8-(7-oxa-2-azaspiro[3.5]nonan-2-yl)-2,3,4,5-tetrahydro-1H-benzo[b]azepin-3-yl)-4-phenoxypicolinamide] | 6.3 nM | 1420 nM |
| 37 nM | CN1C(=O)C(NC(=O)c2n[nH]c(Cc3ccccc3)n2)CCc2ccc(C#Cc3ccccn3)cc21 (racemic) [Compound I-20, (±)-5-Benzyl-N-(1-methyl-2-oxo-8-(pyridin-2-ylethynyl)-2,3,4,5-tetrahydro-1H-benzo[b]azepin-3-yl)-1H-1,2,4-triazole-3-carboxamide] | 3.8 nM | 8.5 nM |
| 23.4 nM | CN1C(=O)[C@@H](NC(=O)c2n[nH]c(Cc3ccccc3)n2)CCc2ccc(C#Cc3cccnc3)cc21 [Compound I-18, (S)-5-Benzyl-N-(1-methyl-2-oxo-8-(pyridin-3-ylethynyl)-2,3,4,5-tetrahydro-1H-benzo[b]azepin-3-yl)-1H-1,2,4-triazole-3-carboxamide] | 3.2 nM | 5.9 nM |
| 12.7 nM | CN1CCN(C(C)(C)C#Cc2ccc3c(c2)N(C)C(=O)[C@@H](NC(=O)c2cc(Oc4ccccc4)ccn2)CC3)CC1 [Compound I-37, (S)—N-(1-Methyl-8-(3-methyl-3-(4-methylpiperazin-1-yl)but-1-yn-1-yl)-2-oxo-2,3,4,5-tetrahydro-1H-benzo[b]azepin-3-yl)-4-phenoxypicolinamide] | 21 nM | 1940 nM |
| 39.2 nM | [2H]C([2H])([2H])N1C(=O)[C@@H](NC(=O)n2cc(Cc3ccc(F)cc3)cn2)CCc2ccc(C#CC(C)(C)O)cc21 [Compound I-36, 4-(4-Fluorobenzyl)-N-(8-(3-hydroxy-3-methylbut-1-yn-1-yl)-1-(methyl-d)-2-oxo-2,3,4,5-tetrahydro-1H-benzo[b]azepin-3-yl)-1H-pyrazole-1-carboxamide] | 0.5 nM | 4.5 nM |
